In article PMC2806030, “Inhibition of mammalian S6 kinase by resveratrol suppresses autophagy” (Aging (Albany NY), 2009):

How the values were obtained:
Assay in all cases: biochemical
Parameters in all cases: Upstate KinaseProfiler in vitro kinase activity assay, per cent of DMSO control
Details in all cases: read-out: Activity (% of Control)
[1] = biological target: CDK3/cyclinE(h) (Homo sapiens, UniProt Q00526)
Outline: (§1)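 Profiling done with Upstate KinaseProfiler service across 100 kinases, resveratrol tested at 20 μM; activity expressed relative to control.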

[2] = biological target: T1, CDK5/p35(h) (Homo sapiens, UniProt Q00535)
T1 construct: p35
Outline: as §1

[3] = biological target: DAPK1(h) (Homo sapiens, UniProt P53355)
Outline: as §1

[4] = biological target: DAPK2(h) (Homo sapiens, UniProt Q9UIK4)
Outline: as §1

[5] = biological target: Flt1(h) (Homo sapiens, UniProt P17948)
Sequence of Flt1(h) (P17948 whole entry): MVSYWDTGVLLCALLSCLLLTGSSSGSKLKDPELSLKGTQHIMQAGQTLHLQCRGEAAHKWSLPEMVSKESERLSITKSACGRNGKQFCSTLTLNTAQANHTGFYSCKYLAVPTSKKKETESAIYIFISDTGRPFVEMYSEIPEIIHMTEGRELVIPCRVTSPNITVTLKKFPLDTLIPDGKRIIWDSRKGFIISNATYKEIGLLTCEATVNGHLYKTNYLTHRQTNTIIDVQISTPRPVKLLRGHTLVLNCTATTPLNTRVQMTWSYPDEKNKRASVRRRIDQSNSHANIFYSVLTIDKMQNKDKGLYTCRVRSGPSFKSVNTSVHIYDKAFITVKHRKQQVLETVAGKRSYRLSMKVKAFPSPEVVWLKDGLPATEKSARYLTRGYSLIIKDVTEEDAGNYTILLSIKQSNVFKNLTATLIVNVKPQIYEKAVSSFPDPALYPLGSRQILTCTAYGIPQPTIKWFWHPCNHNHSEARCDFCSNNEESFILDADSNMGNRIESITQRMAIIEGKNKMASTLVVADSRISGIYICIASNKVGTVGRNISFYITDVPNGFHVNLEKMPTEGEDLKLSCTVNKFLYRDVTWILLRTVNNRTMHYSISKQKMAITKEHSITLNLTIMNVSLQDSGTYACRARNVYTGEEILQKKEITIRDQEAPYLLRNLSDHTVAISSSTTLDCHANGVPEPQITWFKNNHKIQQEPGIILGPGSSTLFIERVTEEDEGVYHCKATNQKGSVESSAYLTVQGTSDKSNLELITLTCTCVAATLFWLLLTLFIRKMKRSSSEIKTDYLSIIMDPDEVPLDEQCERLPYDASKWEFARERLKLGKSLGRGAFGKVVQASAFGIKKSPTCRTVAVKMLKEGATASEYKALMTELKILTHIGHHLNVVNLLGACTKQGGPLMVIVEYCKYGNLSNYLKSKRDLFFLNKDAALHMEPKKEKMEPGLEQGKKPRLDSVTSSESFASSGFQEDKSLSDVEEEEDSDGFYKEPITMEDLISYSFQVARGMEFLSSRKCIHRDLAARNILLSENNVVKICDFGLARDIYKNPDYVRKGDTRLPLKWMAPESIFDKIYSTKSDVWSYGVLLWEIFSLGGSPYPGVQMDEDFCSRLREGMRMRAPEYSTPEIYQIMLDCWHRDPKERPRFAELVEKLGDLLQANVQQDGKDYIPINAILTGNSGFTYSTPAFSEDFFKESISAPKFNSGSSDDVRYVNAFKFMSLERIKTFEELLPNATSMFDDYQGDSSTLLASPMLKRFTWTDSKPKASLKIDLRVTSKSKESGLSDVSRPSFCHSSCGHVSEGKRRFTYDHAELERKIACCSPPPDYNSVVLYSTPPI
Outline: as §1

[6] = biological target: Flt3(h) (Homo sapiens, UniProt P36888)
Sequence of Flt3(h) (P36888 whole entry): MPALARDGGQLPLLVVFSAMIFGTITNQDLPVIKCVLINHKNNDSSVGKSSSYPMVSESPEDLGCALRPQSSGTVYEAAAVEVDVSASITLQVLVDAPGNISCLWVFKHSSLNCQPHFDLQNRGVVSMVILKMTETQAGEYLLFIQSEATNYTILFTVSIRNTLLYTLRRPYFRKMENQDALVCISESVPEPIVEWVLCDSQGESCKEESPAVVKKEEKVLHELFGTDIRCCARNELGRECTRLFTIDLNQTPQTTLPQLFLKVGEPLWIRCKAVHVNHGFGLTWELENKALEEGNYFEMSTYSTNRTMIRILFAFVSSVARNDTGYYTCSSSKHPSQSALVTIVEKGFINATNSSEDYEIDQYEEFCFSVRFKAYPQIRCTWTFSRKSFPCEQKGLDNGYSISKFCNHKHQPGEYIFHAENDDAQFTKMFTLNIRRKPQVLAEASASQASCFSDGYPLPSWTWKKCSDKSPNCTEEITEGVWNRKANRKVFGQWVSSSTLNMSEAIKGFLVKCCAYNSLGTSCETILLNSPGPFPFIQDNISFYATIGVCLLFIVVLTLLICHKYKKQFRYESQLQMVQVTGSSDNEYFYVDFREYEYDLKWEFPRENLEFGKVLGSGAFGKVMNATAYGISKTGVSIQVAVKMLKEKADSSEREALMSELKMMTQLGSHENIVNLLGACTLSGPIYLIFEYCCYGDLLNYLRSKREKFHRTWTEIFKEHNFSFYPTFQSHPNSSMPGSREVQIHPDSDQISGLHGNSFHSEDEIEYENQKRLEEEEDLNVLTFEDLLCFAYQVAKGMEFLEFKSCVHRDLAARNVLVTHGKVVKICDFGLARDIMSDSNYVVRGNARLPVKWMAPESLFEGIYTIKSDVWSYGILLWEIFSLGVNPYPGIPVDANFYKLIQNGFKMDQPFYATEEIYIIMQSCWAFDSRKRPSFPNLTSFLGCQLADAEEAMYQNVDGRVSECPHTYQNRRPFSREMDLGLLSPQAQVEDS
Outline: as §1

[7] = biological target: T2, IKKß(h) (Homo sapiens, UniProt O14920)
T2 construct: gene IKBKB
T2 sequence (O14920 whole entry): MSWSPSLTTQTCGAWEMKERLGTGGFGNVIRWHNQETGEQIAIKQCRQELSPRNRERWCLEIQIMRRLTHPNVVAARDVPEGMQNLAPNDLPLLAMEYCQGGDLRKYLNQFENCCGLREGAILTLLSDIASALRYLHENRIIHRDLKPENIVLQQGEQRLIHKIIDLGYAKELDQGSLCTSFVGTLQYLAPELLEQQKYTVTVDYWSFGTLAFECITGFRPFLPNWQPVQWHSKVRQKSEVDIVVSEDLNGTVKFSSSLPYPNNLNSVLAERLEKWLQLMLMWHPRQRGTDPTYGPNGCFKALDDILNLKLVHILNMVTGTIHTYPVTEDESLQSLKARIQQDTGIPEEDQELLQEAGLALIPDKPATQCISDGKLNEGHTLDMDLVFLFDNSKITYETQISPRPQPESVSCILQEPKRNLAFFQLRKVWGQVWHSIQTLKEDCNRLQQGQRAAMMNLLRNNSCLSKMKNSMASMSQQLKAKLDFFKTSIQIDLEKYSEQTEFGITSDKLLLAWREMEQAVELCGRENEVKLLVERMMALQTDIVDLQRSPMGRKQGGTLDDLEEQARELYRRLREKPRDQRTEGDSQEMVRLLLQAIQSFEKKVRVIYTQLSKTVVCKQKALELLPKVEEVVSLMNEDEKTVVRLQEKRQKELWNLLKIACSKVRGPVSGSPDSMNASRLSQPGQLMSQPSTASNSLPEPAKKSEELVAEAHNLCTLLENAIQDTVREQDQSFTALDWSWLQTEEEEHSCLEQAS
Outline: as §1

[8] = biological target: T3, IR(h) (Homo sapiens, UniProt P06213)
T3 construct: gene INSR
Outline: as §1

[9] = biological target: T4, JNK1α1(h) (Homo sapiens, UniProt P45983)
T4 construct: gene MAPK8; isoform alpha1
Outline: as §1

[10] = biological target: NEK2(h) (Homo sapiens, UniProt P51955)
Sequence of NEK2(h) (P51955 whole entry): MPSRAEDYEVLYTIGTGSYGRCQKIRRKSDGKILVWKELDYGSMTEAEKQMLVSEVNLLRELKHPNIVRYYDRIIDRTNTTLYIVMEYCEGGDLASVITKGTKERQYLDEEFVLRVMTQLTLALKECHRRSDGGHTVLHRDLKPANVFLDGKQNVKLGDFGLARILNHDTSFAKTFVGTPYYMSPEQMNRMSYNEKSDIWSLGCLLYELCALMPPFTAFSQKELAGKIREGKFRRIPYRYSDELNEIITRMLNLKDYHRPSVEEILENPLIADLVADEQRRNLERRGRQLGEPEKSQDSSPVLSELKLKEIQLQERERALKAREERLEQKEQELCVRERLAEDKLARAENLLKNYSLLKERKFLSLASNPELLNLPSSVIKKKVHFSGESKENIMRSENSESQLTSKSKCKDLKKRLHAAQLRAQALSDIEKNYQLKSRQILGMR
Outline: as §1

[11] = biological target: NEK3(h) (Homo sapiens, UniProt P51956)
Outline: as §1

[12] = biological target: NEK7(h) (Homo sapiens, UniProt Q8TDX7)
Sequence of NEK7(h) (Q8TDX7 whole entry): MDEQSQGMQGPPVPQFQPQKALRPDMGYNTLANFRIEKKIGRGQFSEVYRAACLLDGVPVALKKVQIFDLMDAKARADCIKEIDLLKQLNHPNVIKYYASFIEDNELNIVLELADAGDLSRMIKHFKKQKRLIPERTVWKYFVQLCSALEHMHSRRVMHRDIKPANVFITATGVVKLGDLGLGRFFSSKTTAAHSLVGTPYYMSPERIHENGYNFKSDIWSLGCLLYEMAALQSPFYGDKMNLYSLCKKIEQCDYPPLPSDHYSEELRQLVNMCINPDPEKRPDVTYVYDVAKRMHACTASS
Outline: as §1

[13] = biological target: T5, PDK1(h) (Homo sapiens, UniProt O15530)
T5 construct: gene PDPK1
T5 sequence (O15530 whole entry): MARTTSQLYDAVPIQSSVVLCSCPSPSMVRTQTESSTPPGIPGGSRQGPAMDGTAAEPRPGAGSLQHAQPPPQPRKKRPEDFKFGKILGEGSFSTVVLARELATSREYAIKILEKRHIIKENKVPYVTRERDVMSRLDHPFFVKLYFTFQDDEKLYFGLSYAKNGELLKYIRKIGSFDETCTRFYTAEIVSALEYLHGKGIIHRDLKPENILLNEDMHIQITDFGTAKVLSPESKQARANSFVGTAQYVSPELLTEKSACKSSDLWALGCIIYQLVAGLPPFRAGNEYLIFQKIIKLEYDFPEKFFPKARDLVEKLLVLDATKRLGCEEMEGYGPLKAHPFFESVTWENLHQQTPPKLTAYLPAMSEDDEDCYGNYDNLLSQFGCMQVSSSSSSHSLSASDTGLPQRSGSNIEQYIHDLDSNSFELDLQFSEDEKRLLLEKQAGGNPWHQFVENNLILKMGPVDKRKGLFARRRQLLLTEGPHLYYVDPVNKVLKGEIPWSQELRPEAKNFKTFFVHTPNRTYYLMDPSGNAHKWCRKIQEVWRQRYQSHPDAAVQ
Outline: as §1

[14] = biological target: T6, PKCγ(h) (Homo sapiens, UniProt P05129)
T6 construct: gene PRKCG
Outline: as §1

[15] = biological target: T7, PKG1ß(h) (Homo sapiens, UniProt Q13976)
T7 construct: gene PRKG1; isoform beta
T7 sequence (Q13976 whole entry, canonical isoform): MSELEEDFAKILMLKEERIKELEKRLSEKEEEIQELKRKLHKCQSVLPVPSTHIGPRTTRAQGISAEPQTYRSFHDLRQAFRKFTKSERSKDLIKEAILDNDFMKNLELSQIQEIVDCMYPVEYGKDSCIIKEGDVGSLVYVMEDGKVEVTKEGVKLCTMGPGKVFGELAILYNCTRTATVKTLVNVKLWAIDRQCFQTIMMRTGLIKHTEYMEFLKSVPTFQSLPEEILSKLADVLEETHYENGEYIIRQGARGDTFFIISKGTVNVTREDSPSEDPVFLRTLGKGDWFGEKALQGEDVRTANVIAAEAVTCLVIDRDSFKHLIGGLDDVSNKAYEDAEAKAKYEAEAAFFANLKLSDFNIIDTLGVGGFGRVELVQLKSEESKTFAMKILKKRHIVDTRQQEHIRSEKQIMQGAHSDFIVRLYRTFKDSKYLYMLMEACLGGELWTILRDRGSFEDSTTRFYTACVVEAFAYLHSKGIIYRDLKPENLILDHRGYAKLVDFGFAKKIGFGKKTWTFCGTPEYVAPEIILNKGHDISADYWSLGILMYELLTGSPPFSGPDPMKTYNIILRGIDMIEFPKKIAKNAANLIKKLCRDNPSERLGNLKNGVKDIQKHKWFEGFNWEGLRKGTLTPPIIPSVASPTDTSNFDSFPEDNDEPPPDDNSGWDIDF
Outline: as §1

[16] = biological target: T8, Snk(h) (Homo sapiens, UniProt Q9NYY3)
T8 construct: gene PLK2
Outline: as §1

[17] = biological target: T9, TrkB(h) (Homo sapiens, UniProt Q16620)
T9 construct: gene NTRK2
Outline: as §1

[18] = biological target: T10, ZAP-70(h) (Homo sapiens, UniProt P43403)
T10 construct: gene ZAP70
Outline: as §1

For `Oc1ccc(/C=C/c2cc(O)cc(O)c2)cc1` [Res, resveratrol], the remaining activity at 20 µM [1] was 75 ± 4%, the remaining activity at 20 µM [2] was 77 ± 2% and the remaining activity at 20 µM [3] was 71 ± 3%. It also gave a remaining activity at 20 µM [4] of 67 ± 7%, a remaining activity at 20 µM [5] of 52 ± 1% and a remaining activity at 20 µM [6] of 41 ± 1%. The remaining activity at 20 µM [7] was 116 ± 2%, the remaining activity at 20 µM [8] was 71 ± 5% and the remaining activity at 20 µM [9] was 89 ± 5%. It also gave a remaining activity at 20 µM [10] of 102 ± 4%, a remaining activity at 20 µM [11] of 96 ± 8% and a remaining activity at 20 µM [12] of 116 ± 2%. The remaining activity at 20 µM [13] was 108 ± 7%, the remaining activity at 20 µM [14] was 80 ± 8% and the remaining activity at 20 µM [15] was 56 ± 4%. It also gave a remaining activity at 20 µM [16] of 81 ± 3%, a remaining activity at 20 µM [17] of 98 ± 1% and a remaining activity at 20 µM [18] of 141 ± 2%.
